# Test results as given in patent US20240109903A1, “SUBSTITUTED HETEROCYCLES FOR TREATING CANCER” (Northwestern University, priority 2022, published 2024).
# Where two headings read alike, the source gives them in different places.
# What was measured:
# Type in all cases: cell-based
# [1] = test system: MV-4-11 acute myeloid leukemia cells; assay: CellTiter-Glo 2.0 cell viability, MV-4-11; conditions: Homo sapiens
# Procedure: 2019 October; 94(4): 1813-1823.
# Cell viability was assessed using the CellTiter-Glo 2.0 assay from Promega, which yields a signal proportional to the amount of ATP present in a cell population. Compounds were first dispensed into empty 96-well flat-bottom tissue culture-treated plates (Corning) using an Echo550. MV4-1 cells were diluted to a density of 0.1 million cells per ml, pipetted onto the compounds at a density of 1,000 cells per well for U937 and 3,000 cells per well for MV4-11, mixed, and incubated for 3 days at 37° C. with 5% C02. After incubating, 5 μl of cells from each well were added to 5 μl of CellTiter-Glo 2.0 reagent in a384-well white ProxiPlate (PerkinElmer), incubated for 20 minutes at ambient temperature, and luminescence was analyzed on an EnSpire plate reader. Graphing and regression analysis was performed in Graphpad Prism.
# [2] = test system: K-562; assay: NCI 60 five-dose screen K-562; conditions: Homo sapiens, K562, five-dose
# [3] = test system: MOLT-4; assay: NCI 60 five-dose screen MOLT-4; conditions: Homo sapiens, five-dose
# [4] = test system: RPMI-8226; assay: NCI 60 five-dose screen RPMI-8226; conditions: Homo sapiens, five-dose
# [5] = test system: EKVX; assay: NCI 60 five-dose screen EKVX; conditions: Homo sapiens, five-dose
# [6] = test system: NCI-H226; assay: NCI 60 five-dose screen NCI-H226; conditions: Homo sapiens, five-dose
# [7] = test system: NCI-H23; assay: NCI 60 five-dose screen NCI-H23; conditions: Homo sapiens, five-dose
# [8] = test system: SW-620; assay: NCI 60 five-dose screen SW-620; conditions: Homo sapiens, five-dose
# [9] = test system: SNB-19; assay: NCI 60 five-dose screen SNB-19; conditions: Homo sapiens, five-dose
# [10] = test system: LOX IMVI; assay: NCI 60 five-dose screen LOX IMVI; conditions: Homo sapiens, five-dose
# [11] = test system: MALME-3M; assay: NCI 60 five-dose screen MALME-3M; conditions: Homo sapiens, MALME-3M, five-dose
# [12] = test system: MDA-MB-435; assay: NCI 60 five-dose screen MDA-MB-435; conditions: Homo sapiens, five-dose
# [13] = test system: SK-MEL-28; assay: NCI 60 five-dose screen SK-MEL-28; conditions: Homo sapiens, five-dose
# [14] = test system: SK-MEL-5; assay: NCI 60 five-dose screen SK-MEL-5; conditions: Homo sapiens, five-dose
# [15] = test system: OVCAR-3; assay: NCI 60 five-dose screen OVCAR-3; conditions: Homo sapiens, five-dose
# [16] = test system: SK-OV-3; assay: NCI 60 five-dose screen SK-OV-3; conditions: Homo sapiens, five-dose
# [17] = test system: 786-0; assay: NCI 60 five-dose screen 786-0; conditions: Homo sapiens, five-dose
# [18] = test system: RXF 393; assay: NCI 60 five-dose screen RXF 393; conditions: Homo sapiens, five-dose
# [19] = test system: TK-10; assay: NCI 60 five-dose screen TK-10; conditions: Homo sapiens, five-dose
# [20] = test system: UO-31; assay: NCI 60 five-dose screen UO-31; conditions: Homo sapiens, five-dose
# [21] = test system: PC-3; assay: NCI 60 five-dose screen PC-3; conditions: Homo sapiens, five-dose
# [22] = test system: DU-145; assay: NCI 60 five-dose screen DU-145; conditions: Homo sapiens, five-dose
# [23] = test system: MDA-MB-231/ATCC; assay: NCI 60 five-dose screen MDA-MB-231/ATCC; conditions: Homo sapiens, five-dose
# [24] = test system: BT-549; assay: NCI 60 five-dose screen BT-549; conditions: Homo sapiens, five-dose
# [25] = test system: MDA-MB-468; assay: NCI 60 five-dose screen MDA-MB-468; conditions: Homo sapiens, five-dose
# [26] = read-out: LC50 (the source's name)
# [27] = read-out: LC50 (the source's name) (converted)
compound,measurement,setting,value
FC(F)(F)CN1CCN(CCn2c(C(F)(F)F)cc3c(Cl)ncnc32)CC1 [NUCC-0226683],IC50,"[1]; MV4-11, 72 h, MV-4-11 cells, 3 days, CellTiter-Glo 2.0, read-out: IC50 (uM) [Cell Type: MV-4-11]",1.83 µM
same,IC50,"[1]; MV4-11, bound stated in text, read-out: IC50 against MV-4-11 acute myeloid leukemia cells",< 2 µM
same,GI50,[2],2.82 µM
same,IC50,[2],3.47 µM
same,IC (TGI),[2],100 µM
same,CC50,[2]; [26],≥ 100 µM
same,GI50,[3],2.4 µM
same,IC50,[3],4.17 µM
same,IC (TGI),[3],9.12 µM
same,CC50,[3]; [26],≥ 100 µM
same,GI50,[4],23.4 µM
same,IC50,[4],39.8 µM
same,IC (TGI),[4],77.6 µM
same,CC50,[4]; [26],≥ 100 µM
same,GI50,[5],11.7 µM
same,IC50,[5],28.8 µM
same,IC (TGI),[5],40.7 µM
same,CC50,[5]; [27],≥ 100 µM
same,GI50,[6],17.4 µM
same,IC50,[6],100 µM
same,IC (TGI),[6],72.4 µM
same,CC50,[6]; [27],≥ 100 µM
same,GI50,[7],5.89 µM
same,IC50,[7],14.8 µM
same,IC (TGI),[7],26.9 µM
same,CC50,[7]; [27],≥ 100 µM
same,GI50,[8],4.9 µM
same,IC50,[8],6.17 µM
same,IC (TGI),[8],19.5 µM
same,CC50,[8]; [27],63.1 µM
same,GI50,[9],13.2 µM
same,IC50,[9],24 µM
same,IC (TGI),[9],26.9 µM
same,CC50,[9]; [27],53.7 µM
same,GI50,[10],1.66 µM
same,IC50,[10],2.95 µM
same,IC (TGI),[10],3.09 µM
same,CC50,[10]; [27],5.75 µM
same,GI50,[11],14.5 µM
same,IC50,[11],33.9 µM
same,IC (TGI),[11],32.4 µM
same,CC50,[11]; [27],70.8 µM
same,GI50,[12],5.5 µM
same,IC50,[12],9.12 µM
same,IC (TGI),[12],19.5 µM
same,CC50,[12]; [27],51.3 µM
same,GI50,[13],8.13 µM
same,IC50,[13],16.6 µM
same,IC (TGI),[13],37.2 µM
same,CC50,[13]; [27],≥ 100 µM
same,GI50,[14],3.72 µM
same,IC50,[14],6.17 µM
same,IC (TGI),[14],13.8 µM
same,CC50,[14]; [27],37.2 µM
same,GI50,[15],14.5 µM
same,IC50,[15],28.8 µM
same,IC (TGI),[15],34.7 µM
same,CC50,[15]; [27],83.2 µM
same,GI50,[16],16.2 µM
same,IC50,[16],38.9 µM
same,IC (TGI),[16],43.7 µM
same,CC50,[16]; [27],≥ 100 µM
same,GI50,[17],22.4 µM
same,IC50,[17],37.2 µM
same,IC (TGI),[17],60.3 µM
same,CC50,[17]; [27],≥ 100 µM
same,GI50,[18],11 µM
same,IC50,[18],30.9 µM
same,IC (TGI),[18],28.2 µM
same,CC50,[18]; [27],72.4 µM
same,GI50,[19],35.5 µM
same,IC50,[19],100 µM
same,IC (TGI),[19],100 µM
same,CC50,[19]; [27],≥ 100 µM
same,GI50,[20],1.62 µM
same,IC50,[20],3.02 µM
same,IC (TGI),[20],3.24 µM
same,CC50,[20]; [27],6.61 µM
same,GI50,[21],3.55 µM
same,IC50,[21],5.01 µM
same,IC (TGI),[21],12 µM
same,CC50,[21]; [27],57.5 µM
same,GI50,[22],12.6 µM
same,IC50,[22],22.4 µM
same,IC (TGI),[22],33.1 µM
same,CC50,[22]; [27],87.1 µM
same,GI50,[23],1.78 µM
same,IC50,[23],3.39 µM
same,IC (TGI),[23],4.27 µM
same,CC50,[23]; [27],11.5 µM
same,GI50,[24],12.9 µM
same,IC50,[24],26.9 µM
same,IC (TGI),[24],26.9 µM
same,CC50,[24]; [27],55 µM
same,GI50,[25],2.19 µM
same,IC50,[25],6.03 µM
same,IC (TGI),[25],4.9 µM
same,CC50,[25]; [27],14.1 µM
